Laboratory results: US8741962B2, “Process for preparation of Rasagiline and salts thereof” (USV Limited, priority 2009, dated 2014)
Where “and” joins values, the source holds several entries; their conditions need not be identical. Equal entries are not always repeated. Where two headings read alike, the source gives them in different places. Each block holds one molecule with its values, some of them ahead of it.

Key:
[1] = Particle size determination by dry method (Malvern Mastersizer 2000, Scirocco 2000 dry unit); conditions: for d10 / d50 / d90: not micronized, as obtained by the process
Protocol: Rasagiline mesylate is further micronized using conventional micronization techniques. After micronization, the sample is preferably passed through 100 mesh sieve and the particle size is measured using a Malvern Mastersizer 2000 dry unit, Scirocco 2000 which is commercially available from Malvern Instruments Ltd., United Kingdom.

[2] = Excerpt: The present inventors have conducted extensive research work for solving the problem of agglomerization of micronized Rasagiline or salt thereof.
[3] = wet method
Remark: listed apart in the source
[4] = after micronization, dry method
[5] = before micronization, dry method
[6] = Pack-1 (Glass bottle), after one month
[7] = Pack-1 (Glass bottle), micronized sample (initial)
[8] = Pack-2 (PET bottle), after one month
[9] = Pack-2 (PET bottle), micronized sample (initial)
[10] = room temperature, glass bottle or PET bottle, about one month

size of 90% of the total amount by volume of particles ([1]; micronized, dry method): less than 20 microns | d10 [1]: 2-9 μ | d50 [1]: 10-20 μ | d90 [1]: 40-80 μ
SMILES: Br.C#CCN[C@@H]1CCc2ccccc21 [R(+)-Rasagiline hydrobromide, (1R)-2,3-dihydro-N-2-propynyl-1H-indane-1-amine hydrobromide]

Particle Size Distribution D10 [1, 4]: 1.44 micron and 1.43 micron | Particle Size Distribution D50 [1, 4]: 3.00 micron and 2.90 micron | Particle Size Distribution D90 [1, 4]: 5.94 micron and 5.74 micron | Particle Size Distribution D10 [1, 5]: 3.65 micron and 3.18 micron | Particle Size Distribution D50 [1, 5]: 15.27 micron and 13.33 micron | Particle Size Distribution D90 [1, 5]: 57.38 micron and 47.11 micron | particle size of 50% of particles ([1]; micronized): less than or equal to 4 μ | particle size of 90% of particles ([1]; micronized): less than or equal to 9 μ | d10 [1]: 2-9 μ | d50 [1]: 10-20 μ | d90 [1]: 40-80 μ | D10 [2, 6]: 1.70 | D50 [2, 6]: 3.66 | D90 [2, 6]: 7.55 | D10 [2, 7]: 1.40 | D50 [2, 7]: 3.33 | D90 [2, 7]: 7.88 | D10 [2, 8]: 1.41 | D50 [2, 8]: 2.97 | D90 [2, 8]: 5.64 | D10 [2, 9]: 1.43 | D50 [2, 9]: 2.90 | D90 [2, 9]: 5.74 | Particle Size Distribution D90 ([3]; after micronization): 796.35 micron and 1007.18 micron | Particle Size Distribution D50 ([3]; before micronization): 141.23 micron and 174.70 micron | Particle Size Distribution D90 ([3]; before micronization): 590.45 micron and 832.14 micron
SMILES: C#CCN[C@@H]1CCc2ccccc21.CS(=O)(=O)O [R(+)-Rasagiline mesylate, (1R)-2,3-dihydro-N-2-propynyl-1H-indane-1-amine mesylate]
Agglomeration of the particles on storage [2, 10]: no agglomeration of the particles was observed | Change in XRPD pattern and particle size on storage [2, 10]: no change in XRPD pattern and particle size

size of 90% of the total amount by volume of particles (micronized): less than 20 microns | size of 90% particles (not micronized): less than 500 microns
SMILES: C#CCN[C@@H]1CCc2ccccc21.Cl [R-(+)-Rasagiline hydrochloride, (1R)-2,3-dihydro-N-2-propynyl-1H-indane-1-amine hydrochloride]
